Literature values, collected in patent US11390612B2, “Polymorphic forms of Afatinib free base and Afatinib dimaleate” (FRESENIUS KABI ONCOLOGY LIMITED, priority 2015, dated 2022).

Conditions: as observed in WO 2013/052157

- polymorphic conversion after absorbing moisture (after absorbing moisture): converts to form E of Afatinib dimaleate
- hygroscopicity: hygroscopic in nature
Compound: CN(C)C/C=C/C(=O)Nc1cc2c(Nc3ccc(F)c(Cl)c3)ncnc2cc1O[C@H]1CCOC1.O=C(O)/C=C\C(=O)O.O=C(O)/C=C\C(=O)O [form A of Afatinib dimaleate]
